Tested on: RAW 264.7 cells
Assay: Quantitative cell-permeability of FITC-labeled aMTD- or rPeptide-fused CRA recombinant proteins (flow cytometry)
Type: cell-based
Conditions: for Relative Ratio to aMTD AVE: cell-permeability of rPeptide-fused CRA recombinant protein relative to average of 240 aMTDs
Description: The aMTDs and rPeptides were fluorescently labeled and compared based on the critical factors for cell-permeability by using flow cytometry and confocal laser scanning microscopy (FIGS. 5 to 8). The cellular uptake of the peptide-fused non-functional cargo recombinant proteins could quantitatively be evaluated in flow cytometry, while confocal laser scanning microscopy allows intracellular uptake to be assessed visually. The analysis included recombinant proteins fused to a negative control [rP38] that has opposite characteristics (hydrophilic and aromatic sequence: […] NO: 952)) to the aMTDs (hydrophobic and aliphatic sequences). Relative cell-permeability (relative fold) of aMTDs to the negative control was also analyzed (Table 23 and FIG. 9). […] RAW 264.7 cells were treated with 10 μM FITC-labeled recombinant proteins for 1 hour at 37° C., washed three times with cold PBS, treated with 0.25% tripsin/EDTA (Sigma-Aldrich, St. Louis, Mo.) for 20 minutes at 37° C. to remove cell-surface bound proteins. Cell-permeability of these recombinant proteins were analyzed by flow cytometry (Guava, Millipore, Darmstadt, Germany) using the FlowJo cytometric analysis software (FIGS. 5 to 6).

[1] = cell-permeability of aMTD-fused CRA recombinant protein relative to negative control (A: rP38)
[2] = cell-permeability of aMTD-fused CRA recombinant protein relative to reference CPP (B: MTM12)
[3] = cell-permeability of aMTD-fused CRA recombinant protein relative to reference CPP (C: MTD85)
[4] = cell-permeability relative to negative control rP38 (A type), aMTD-fused CRA recombinant protein, 10 μM FITC-labeled, 1 hour, 37° C., RAW 264.7 cells
[5] = cell-permeability relative to reference CPP MTD85 (C type), aMTD-fused CRA recombinant protein, 10 μM FITC-labeled, 1 hour, 37° C., RAW 264.7 cells
[6] = cell-permeability relative to reference CPP MTM12 (B type), aMTD-fused CRA recombinant protein, 10 μM FITC-labeled, 1 hour, 37° C., RAW 264.7 cells
[7] = 10 μM FITC-labeled, 1 hour, 37° C., RAW 264.7 cells

Row | Substance | Relative Ratio (Fold) A [1] [Fold] | Relative Ratio (Fold) B [2] [Fold] | Relative Ratio (Fold) C [3] [Fold] | other results
1 | 281 (ALIVLPAAVAVP; Amino acid Sequence of aMTD281) [compound 281] | 13.3 | 8.9 | 4.5 | Relative Ratio (Fold) A [4]: 13.3 Fold; Relative Ratio (Fold) C [5]: 4.5 Fold; Relative Ratio (Fold) B [6]: 8.9 Fold
2 | 282 (VLAVAPALIVAP; Amino acid Sequence of aMTD282) [compound 282] | 11.8 | 7.9 | 4.0 | –
3 | 283 (AALLAPALIVAP; Amino acid Sequence of aMTD283) [compound 283] | – | – | – | Relative Ratio (Fold) A [4]: 3.1 Fold; Relative Ratio (Fold) C [5]: 1.0 Fold; Relative Ratio (Fold) B [6]: 2.0 Fold
4 | 284 (ALIAPAVALIVP; Amino acid Sequence of aMTD284) [compound 284] | – | – | – | Relative Ratio (Fold) A [4]: 2.8 Fold; Relative Ratio (Fold) C [5]: 0.9 Fold; Relative Ratio (Fold) B [6]: 1.8 Fold
5 | 285 (AIVLLPAAVVAP; Amino acid Sequence of aMTD285) [compound 285] | 13.3 | 9.9 | 4.5 | –
6 | 301 (VIAAPVLAVLAP; Amino acid Sequence of aMTD301) [compound 301] | – | – | – | Relative Ratio (Fold) A [4]: 6.0 Fold; Relative Ratio (Fold) C [5]: 2.0 Fold; Relative Ratio (Fold) B [6]: 4.0 Fold
7 | 302 (LALAPALALLAP; Amino acid Sequence of aMTD302) [compound 302] | 10.2 | 6.8 | 3.4 | –
8 | 304 (AIILAPIAAIAP; Amino acid Sequence of aMTD304) [compound 304] | – | – | – | Relative Ratio (Fold) A [4]: 4.4 Fold; Relative Ratio (Fold) C [5]: 1.5 Fold; Relative Ratio (Fold) B [6]: 3.0 Fold
9 | 305 (IALAAPILLAAP; Amino acid Sequence of aMTD305) [compound 305] | – | – | – | Relative Ratio (Fold) A [4]: 4.8 Fold; Relative Ratio (Fold) C [5]: 1.6 Fold; Relative Ratio (Fold) B [6]: 3.2 Fold
10 | 312 (VALLAPAVVVAP; Amino acid Sequence of aMTD912) [compound 312] | 19.9 | 13.3 | 6.7 | –
11 | 321 (IVAVALPALAVP; Amino acid Sequence of aMTD321) [compound 321] | 97.8 | 65.2 | 32.9 | –
12 | 322 (VVAIVLPALAAP; Amino acid Sequence of aMTD322) [compound 322] | 17.6 | 11.7 | 5.9 | –
13 | 323 (IVAVALPVALAP; Amino acid Sequence of aMTD323) [compound 323] | 19.1 | 12.8 | 6.4 | –
14 | 324 (IVAVALPAALVP; Amino acid Sequence of aMTD324) [compound 324] | 10.3 | 6.9 | 3.5 | Relative Ratio (Fold) A (relative cell-permeability of aMTD vs reference A (not defined)): 10.3 Fold; Relative Ratio (Fold) B (relative cell-permeability of aMTD vs reference CPP B: MTM12): 6.9 Fold; Relative Ratio (Fold) C (relative cell-permeability of aMTD vs reference CPP C: MTD85): 3.5 Fold
15 | 325 (IVAVALPAVALP; Amino acid Sequence of aMTD325) [compound 325] | 11.7 | 7.8 | 4.0 | –
16 | 329 (LPVLVPVVPVVP; Amino acid Sequence of rPeptide ID 329) [compound 329] | – | – | – | Relative Ratio to aMTD AVE [7]: 0.23
17 | 341 (IVAVALPAVLAP; Amino acid Sequence of aMTD341) [compound 341] | 16.4 | 10.9 | 5.5 | –

Row | Substance | Relative Ratio (Fold) A [1] [Fold] | Relative Ratio (Fold) B [2] [Fold] | Relative Ratio (Fold) C [3] [Fold] | other results
18 | 342 (VIVALAPAVLAP; Amino acid Sequence of aMTD342) [compound 342] | 12.7 | 8.5 | 4.3 | –
19 | 343 (IVAVALPALVAP; Amino acid Sequence of aMTD343) [compound 343] | 19.4 | 12.9 | 6.5 | –
20 | 345 (ALLIVAPVAVAP; Amino acid Sequence of aMTD345) [compound 345] | 8.9 | 5.9 | 3.0 | –
21 | 361 (AVVIVAPAVIAP; Amino acid Sequence of aMTD361) [compound 361] | 16.0 | 10.7 | 5.4 | –
22 | 364 (LVAAVAPALIVP; Amino acid Sequence of aMTD364) [compound 364] | – | – | – | Relative Ratio (Fold) A [4]: 6.5 Fold; Relative Ratio (Fold) C [5]: 2.2 Fold; Relative Ratio (Fold) B [6]: 4.3 Fold
23 | 365 (AVIVVAPALLAP; Amino acid Sequence of aMTD365) [compound 365] | 9.3 | 6.2 | 3.1 | Relative Ratio (Fold) A [4]: 9.3 Fold; Relative Ratio (Fold) C [5]: 3.1 Fold; Relative Ratio (Fold) B [6]: 6.2 Fold
24 | 382 (AAALVIPAILAP; Amino acid Sequence of aMTD382) [compound 382] | 17.7 | 11.8 | 6.0 | –
25 | 383 (VIVALAPALLAP; Amino acid Sequence of aMTD383) [compound 383] | 11.6 | 7.7 | 3.9 | –
26 | 384 (VIVAIAPALLAP; Amino acid Sequence of aMTD384) [compound 384] | 14.0 | 9.4 | 4.7 | –
27 | 385 (IVAIAVPALVAP; Amino acid Sequence of aMTD385) [compound 385] | 38.8 | 25.9 | 13.1 | –
28 | 390 (VPLLVPVVPVVP; Amino acid Sequence of rPeptide ID 390) [compound 390] | – | – | – | Relative Ratio to aMTD AVE [7]: 0.41
29 | 391 (VVAIVLPAVAAP; Amino acid Sequence of aMTD381) [compound 391] | 11.5 | 7.7 | 3.9 | –
30 | 401 (AALAVIPAAILP; Amino acid Sequence of aMTD401) [compound 401] | 10.6 | 7.1 | 3.6 | –
31 | 402 (ALAAVIPAAILP; Amino acid Sequence of aMTD402) [compound 402] | – | – | – | Relative Ratio (Fold) A [4]: 6.4 Fold; Relative Ratio (Fold) C [5]: 2.2 Fold; Relative Ratio (Fold) B [6]: 4.3 Fold
32 | 403 (AAALVIPAAILP; Amino acid Sequence of aMTD403) [compound 403] | 25.2 | 16.8 | 8.5 | –
33 | 404 (LAAAVIPAAILP; Amino acid Sequence of aMTD404) [compound 404] | 18.9 | 12.6 | 6.4 | –

Reference: patent US10385103B2, “Cell-permeable (ICP)-SOCS3 recombinant protein and uses thereof” (CELLIVERY THERAPEUTICS, INC., priority 2014, dated 2019)
